Read-outs that look alike come from different tables or passages of the source.

For assay [1], the system named is PEL cells carrying p53 (wt). Put plainly: Apoptosis assay (Annexin V/PI, flow cytometry) in PEL cells. Conditions: 10 μM. It is filed as cell-based, human. On the procedure:
(§1) FIG. 3a-3g. […] Data are culled from 3 independent experiments.
The proportion of cells at the S phase was determined by measuring incorporation of BrdU and 7-amino-actionomycin D (ADD) into DNA. Cells were grown at a density of 5×10^6 cells/ml indicated periods with the treatment of either peptide or Nutlin-3a. The cells were pulse-labeled with 10 μM BrdU for 30 min. Cells were permeabilized, fixed and BrdU-, 7AAD-stained using the BrdU Flow Kit (BD Pharmingen) according to manufacturer's instructions. Stained cells were analyzed by flow cytometry to determine the cell-cycle distribution on a FACS Scan (BD FACSCanto™ II). Apoptosis was measured by dual-labeling with the Annexin V-FITC Apoptosis Detection kit I (BD biosciences-Pharmingen) according to the manufacturer's instruction and analyzed by Flow Jo software.
Shown is one representative experiment of three. It was shown that vif1/2 peptides cause cell death by apoptosis.
In this respect, BCBL-1 cells were treated with 100 μM of either vif1 or vif2 peptide for the indicated time periods and then subjected to Annexin V and PI staining, followed by FACS analysis. 10 μM Nutlin-3a was used as a positive control.

The subject of assay [2] is primary TKI-resistant Ph^+ and normal ALL cells. Put plainly: Long-term cell culture of TKI-resistant ALL cells. It is filed as cell-based, human. The note with it: single agent, FIG. 15. The text has this:
To test whether vif1 and vif2 peptides have killing effect on relapse leukemia, this example chose two different karyotype relapse ALL cells: Ph^+BCR-ABL^T3151 and normal. The T3151 mutation is one of the common mechanism of escape and resistance against all kinds of tyrosine kinase inhibitors (TKIs). After treatment of these peptides into several different relapse ALL cells, this example performed Trypan blue staining to select dead cells in time dependent manner. […] This example next validated the effect of nilotinib/TAT-vif1 (or TAT-vif2) combination on primary TKI-resistance in Ph^+ and normal ALL during long-term cell culture.

In assay [3] the target is T1, HAUSP TRAF domain HAUSP^62-205 (Homo sapiens, UniProt Q93009). In kind it is binding. Details: All residues of HAUSP^62-205, with the exception of Asp^62, are included in the final model; hexahistidine tag (TEV-cleavable) (cleaved yes); made in house; host or cells: E. coli BL21 (DE3) RIPL. Conditions: for n: ITC binding stoichiometry, 150 mM NaCl, 10 mM HEPES (pH 7.0). On the procedure: FIG. 5. Typical isothermal titration calorimetric measurements of the interactions between the HAUSP TRAF domain and the vIRF4 protein derivatives or other peptides. Purified proteins and synthesized peptides were reconstituted in 150 mM NaCl and 10 mM HEPES (pH 7.0). The calorimetric assays were performed using a VPITC system. All experiments were carried out with a stirring speed of 300 rpm at 20° C., and the thermal power was recorded every 10 s. Data were analyzed using the ORIGIN software package (version 7.0). […] Each titration against the HAUSP TRAF domain is indicated in each panel.
(§2) Purified proteins and synthesized peptides (Peptron Inc., Deajeon, Korea) were reconstituted in 150 mM NaCl and 10 mM HEPES (pH 7.0). The calorimetric assays were performed using a VP-ITC system (MicroCal Inc., Northampton, Mass.). Samples were degassed by vacuum aspiration for 15 min prior to loading. All experiments were carried out with a stirring speed of 300 rpm at 20° C., and the thermal power was recorded every 10 s. Data were analyzed using the ORIGIN software package (version 7.0) supplied with the instrument. […] (SEQ ID NO: 6); EBNA1^435-449, […] (SEQ ID NO: 7); MDM2^137-152, […] […] (SEQ ID NO: 10). Each set of ITC experiments was repeated two or three times.

Assay [4] deals with T2, HAUSP (USP7) (Homo sapiens, UniProt Q93009). The note with it: time-course, K48-Ub3-7 chains, 37° C.
The test system of assay [5] is p53, p21, MDM2 and HAUSP levels in PEL cells. Put plainly: Western blot of p53 and its transcriptional targets in PEL cells. Conditions: peptide treatment. In kind it is cell-based, human.
Source text: as §1
A general note: A western blot detects proteins with antibodies after separation by electrophoresis.

In assay [6] the target is T2, HAUSP (USP7). Put plainly: In vitro DUB assay with ubiquitinated MDM2 as substrate. The note with it: HAUSP preincubated with increasing amounts of peptide; 1 h at 37° C.
The target in a further assay is T3, USP8 (Homo sapiens, UniProt P40818).
T3 sequence (P40818 1-1118): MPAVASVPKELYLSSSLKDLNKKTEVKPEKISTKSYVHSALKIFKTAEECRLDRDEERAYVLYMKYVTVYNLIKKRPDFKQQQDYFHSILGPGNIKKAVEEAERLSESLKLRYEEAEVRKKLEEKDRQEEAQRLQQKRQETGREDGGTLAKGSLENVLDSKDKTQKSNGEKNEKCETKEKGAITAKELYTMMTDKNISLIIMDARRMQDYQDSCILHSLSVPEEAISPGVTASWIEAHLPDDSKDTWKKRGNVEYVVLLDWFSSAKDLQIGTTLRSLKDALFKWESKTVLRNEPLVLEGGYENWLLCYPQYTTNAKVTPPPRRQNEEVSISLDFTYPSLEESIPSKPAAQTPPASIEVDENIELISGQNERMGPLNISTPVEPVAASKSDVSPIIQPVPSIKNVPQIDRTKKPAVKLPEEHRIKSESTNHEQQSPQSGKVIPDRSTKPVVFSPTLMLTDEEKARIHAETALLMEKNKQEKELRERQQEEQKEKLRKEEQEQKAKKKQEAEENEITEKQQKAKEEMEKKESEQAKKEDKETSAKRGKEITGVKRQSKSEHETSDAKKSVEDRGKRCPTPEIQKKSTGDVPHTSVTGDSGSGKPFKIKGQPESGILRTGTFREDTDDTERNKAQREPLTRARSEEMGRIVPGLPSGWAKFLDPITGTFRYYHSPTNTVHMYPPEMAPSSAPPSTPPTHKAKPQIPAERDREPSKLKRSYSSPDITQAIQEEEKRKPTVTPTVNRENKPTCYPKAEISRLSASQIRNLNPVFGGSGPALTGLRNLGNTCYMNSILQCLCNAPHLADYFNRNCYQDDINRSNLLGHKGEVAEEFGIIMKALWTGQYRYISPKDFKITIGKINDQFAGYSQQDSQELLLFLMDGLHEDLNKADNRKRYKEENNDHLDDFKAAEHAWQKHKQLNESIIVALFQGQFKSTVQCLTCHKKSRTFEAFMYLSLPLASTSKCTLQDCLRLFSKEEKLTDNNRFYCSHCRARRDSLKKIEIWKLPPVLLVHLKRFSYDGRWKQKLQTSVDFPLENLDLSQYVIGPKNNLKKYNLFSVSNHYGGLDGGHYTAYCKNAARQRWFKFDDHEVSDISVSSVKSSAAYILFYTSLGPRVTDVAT
Put plainly: In vitro deubiquitination assay with purified USP8. In kind it is biochemical. Conditions: 0.25 μM purified USP8 pre-mixed with peptide for 5 min; K48- or K63-linked chains.

The target in assay [7] is T1, HAUSP TRAF domain HAUSP^62-205. Put plainly: Size exclusion chromatography of complex formation in excess MDM2^137-152. It is filed as binding. Conditions: in the presence of a 5-fold molar excess of MDM2^137-152. More on the design: hexahistidine tag (TEV-cleavable) (cleaved yes); made in house; host or cells: E. coli BL21 (DE3) RIPL.
The target of the next assay is T4, HAUSP TRAF domain (Homo sapiens, UniProt Q93009).
T4 construct: All residues of HAUSP^62-205, with the exception of Asp^62, are included in the final model; hexahistidine tag (TEV-cleavable) (cleaved yes); made in house; host or cells: E. coli BL21 (DE3) RIPL
It is filed as binding. On the procedure:
FIG. 9. Typical isothermal titration calorimetric measurements of the competitive binding of vIRF4 with TRAF domain against cellular substrates. […] Each competitive titration is indicated in the panel.
as §2
To further gauge the competitive nature of vIRF4 binding, the TRAF domain was incubated with an equal molar amount of vIRF4^153-216 in the presence of a 5-fold molar excess of MDM2^137-152, and the mixture was then analyzed by size exclusion chromatography.

T2 sequence (Q93009 whole entry): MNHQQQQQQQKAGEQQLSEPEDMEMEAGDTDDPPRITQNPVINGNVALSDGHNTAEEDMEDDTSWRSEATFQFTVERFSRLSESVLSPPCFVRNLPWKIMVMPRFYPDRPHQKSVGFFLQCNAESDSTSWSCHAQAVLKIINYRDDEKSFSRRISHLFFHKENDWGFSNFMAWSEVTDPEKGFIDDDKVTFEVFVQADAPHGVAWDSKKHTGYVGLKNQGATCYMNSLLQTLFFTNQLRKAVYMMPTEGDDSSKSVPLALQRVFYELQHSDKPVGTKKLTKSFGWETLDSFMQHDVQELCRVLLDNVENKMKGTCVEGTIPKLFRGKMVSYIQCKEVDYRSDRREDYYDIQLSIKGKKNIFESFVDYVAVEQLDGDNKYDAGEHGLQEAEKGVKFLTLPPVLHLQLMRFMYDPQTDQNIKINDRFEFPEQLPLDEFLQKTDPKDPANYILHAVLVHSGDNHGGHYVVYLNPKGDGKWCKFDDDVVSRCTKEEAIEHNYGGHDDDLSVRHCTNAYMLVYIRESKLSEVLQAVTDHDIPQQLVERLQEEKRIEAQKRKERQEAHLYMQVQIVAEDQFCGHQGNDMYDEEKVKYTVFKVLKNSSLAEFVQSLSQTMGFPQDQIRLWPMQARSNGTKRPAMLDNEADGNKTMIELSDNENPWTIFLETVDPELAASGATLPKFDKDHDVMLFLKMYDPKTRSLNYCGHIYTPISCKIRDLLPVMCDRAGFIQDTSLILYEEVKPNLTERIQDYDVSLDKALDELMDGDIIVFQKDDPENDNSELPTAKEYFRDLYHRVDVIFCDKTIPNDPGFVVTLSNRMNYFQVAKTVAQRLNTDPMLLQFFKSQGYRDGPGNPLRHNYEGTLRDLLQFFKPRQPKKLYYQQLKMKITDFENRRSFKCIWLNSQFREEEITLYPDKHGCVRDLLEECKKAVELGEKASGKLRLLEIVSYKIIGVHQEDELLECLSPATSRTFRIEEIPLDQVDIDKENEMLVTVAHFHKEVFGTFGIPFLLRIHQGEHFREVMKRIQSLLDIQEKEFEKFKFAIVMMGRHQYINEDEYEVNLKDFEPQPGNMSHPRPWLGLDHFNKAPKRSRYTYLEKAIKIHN
T1 sequence (Q93009 62-205): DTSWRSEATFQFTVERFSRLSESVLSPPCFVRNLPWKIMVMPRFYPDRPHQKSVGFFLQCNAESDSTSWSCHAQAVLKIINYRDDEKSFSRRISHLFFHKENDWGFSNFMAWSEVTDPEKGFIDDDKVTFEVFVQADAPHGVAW
T4 sequence (Q93009 62-205): as above

Take `COc1ccc(C2=N[C@@H](c3ccc(Cl)cc3)[C@@H](c3ccc(Cl)cc3)N2C(=O)N2CCNC(=O)C2)c(OC(C)C)c1` [Nutlin-3a]: the cell death result in assay [1] is reported as “considerable cell death”.

For `Cc1cn(-c2cc(NC(=O)c3ccc(C)c(Nc4nccc(-c5cccnc5)n4)c3)cc(C(F)(F)F)c2)cn1` [nilotinib], the “response of refractory ALL cells in long-term culture” value in [2] was “did not achieve a therapeutic response”.

In assay [3] (20° C.), `C[C@H](NC(=O)[C@@H]1CCCN1C(=O)CNC(=O)[C@H](CCC(N)=O)NC(=O)[C@@H](N)CCC(=O)O)C(=O)N[C@@H](CC(=O)O)C(=O)N[C@@H](CC(=O)O)C(=O)N1CCC[C@H]1C(=O)NCC(=O)N[C@@H](CCC(=O)O)C(=O)NCC(=O)N1CCC[C@H]1C(=O)N[C@@H](CO)C(=O)N[C@H](C(=O)NCC(=O)O)[C@@H](C)O` [EBNA1^435-449, reference compound] had a n of 0.81 ± 0.01. Further, in assay [3] (ITC, 20° C., pH 7.0), the Ka is reported as 2.10 ± 0.15 10^6 M^−1, the TΔS was -8.69 kcal/mol, the ΔG was -8.48 kcal/mol and the ΔH is -17.17 ± 0.13 kcal/mol.

In the case of “TRQVTQASSFTWRVPG (GTRQVTQASSFTWRVPG; Human herpesvirus 8) [vif2, peptide corresponding to amino acids 220-236 of KSHV vIRF4]”, in the assay with HAUSP (USP7) [4], the “HAUSP DUB activity, comparative kinetic analysis” value is “completely suppressed”. In [5], the HAUSP levels result was “Neither vif1 nor vif2 peptide treatment altered”. In addition, in the assay with HAUSP (USP7) [6], the “HAUSP DUB activity against ubiquitinated MDM2” value is on record as “efficiently blocked”. Also, the “USP8 DUB activity” value with USP8 is given as “can not inhibit”.

Take `CC[C@H](C)[C@H](NC(=O)[C@H](Cc1c[nH]c2ccccc12)NC(=O)[C@@H](NC(=O)[C@@H](N)CO)C(C)C)C(=O)N1CCC[C@H]1C(=O)N[C@H](C(=O)N[C@@H](CC(N)=O)C(=O)N[C@@H](CCC(=O)O)C(=O)NCC(=O)N[C@@H](C)C(=O)N[C@@H](CO)C(=O)N[C@H](C(=O)N[C@@H](CO)C(=O)NCC(=O)N[C@@H](CCSC)C(=O)O)[C@@H](C)O)C(C)C` [vIRF4^202-216]: the “HAUSP DUB activity, comparative kinetic analysis” value on HAUSP (USP7) [4] was “weakly attenuated”. For the same molecule, the HAUSP levels entry in assay [5] is “Neither vif1 nor vif2 peptide treatment altered”. Further, the “complex formation with the TRAF domain” value in [7] is “formed a stable complex”. Besides, the “tighter binding to the TRAF domain compared to the peptides derived from MDM2 and p53” value in assay [3] (ITC) is recorded as 28-40 fold. In addition, the n in assay [3] (20° C.) is reported as 0.84 ± 0.01. Besides, the TΔS in assay [3] (ITC, 20° C., pH 7.0) was -10.63 kcal/mol. For the same molecule, the ΔG in [3] (ITC, 20° C., pH 7.0) was -8.60 kcal/mol. For the same molecule, in assay [3] (ITC, 20° C., pH 7.0), the ΔH is -19.22 ± 0.05 kcal/mol. Further, the “association constant (Kobs)” value stood at 1.09e+07 M⁻¹ on HAUSP TRAF domain (competitor titrated against MDM2^137-152-bound TRAF), 4.42e+07 M⁻¹ on HAUSP TRAF domain (competitor titrated against p53^350-364-bound TRAF) and 3.58e+07 M⁻¹ on HAUSP TRAF domain (competitor titrated against p53^355-369-bound TRAF). Further, the Kobs at HAUSP TRAF domain (titrated to MDM2^137-152-TRAF) is 10.875 ± 1.308 10^6 M^−1; at HAUSP TRAF domain (titrated to p53^350-364-TRAF) it was 44.200 ± 4.200 10^6 M^−1; at HAUSP TRAF domain (titrated to p53^355-369-TRAF), 35.800 ± 3.400 10^6 M^−1. The ΔHobs at HAUSP TRAF domain (titrated to MDM2^137-152-TRAF) is -25.870 ± 0.240 kcal/mol; at HAUSP TRAF domain (titrated to p53^350-364-TRAF), -19.070 ± 0.194 kcal/mol; at HAUSP TRAF domain (titrated to p53^355-369-TRAF), -19.150 ± 0.203 kcal/mol. The “HAUSP DUB activity against ubiquitinated MDM2” value at HAUSP (USP7) [6] was “efficiently blocked”. The “USP8 DUB activity” value at USP8 was “can not inhibit”.

The values above are taken from patent publication US20180201654A1, “PEPTIDE INHIBITORS OF HAUSP DEUBIQUITINASE” (priority 2012, published 2018).
